The values below come from patent US20230149326A1, “PHARMACEUTICAL COMPOSITION FOR PREVENTING OR TREATING MUSCULAR WEAKNESS-RELATED DISEASES COMPRISING ALVERINE, 4-HYDROXY ALVERINE, DERIVATIVE THEREOF, OR PHARMACEUTICALLY ACCEPTABLE SALT THEREOF” (AVENTI INC., priority 2020, published 2023).

Where a name gives a salt, the structure may show the parent alone.

The subject of assay [1] is C2C12 cells. Kind of assay: Promotion of differentiation of myoblasts (MyHC fluorescent staining). The assay is classed as cell-based, mouse. On the procedure:
C2C12 (American Type Culture Collection, CRL-1772™) cells are a myoblast cell line obtained from C3H mouse and is used in myoblast differentiation research. The C2C12 cells were cultured using growth media, and then cultured using differentiation media for differentiation induction. Here, DMEM supplemented with 10% fetal bovine serum was used as growth media (GM), and DMEM supplemented with 5% horse serum (HS) was used as differentiation media (DM). In order to confirm the effect of alverine citrate on promoting the differentiation of myoblasts, C2C12 cells were dispensed in the GM of Example 1.1 and cultured for 24 hours, and then the C2C12 cells were treated with DMSO, insulin, or alverine citrate, and induced for differentiation over 3 days. […] Here, the DMSO, insulin and alverine citrate used in the experiment were all purchased from Sigma-Aldrich. The group treated with insulin was used as the positive control group. In particular, C2C12 cells were dispensed in a 6-well plate treated with the GM of Example 1.1 at a concentration of 5×10^5 cells per plate and after 24 hours, were replaced with DMEM media supplemented with 5% HS and induced for differentiation. Thereafter, the cells were treated with DMSO, insulin (1.72 μM) or alverine citrate (0.01 μM, 0.1 μM, 1 μM or 10 μM). After 3 days, after removing the media, the cells were washed with phosphate buffer solution (1× PBS) and treated with paraformaldehyde (4%) and fixed at room temperature for 15 minutes. Then, after washing three times with phosphate buffer solution (1× PBS), PBS containing 0.3% triton X-100 was treated with permeabilization buffer and allowed to react at room temperature for 10 minutes. After washing three times with phosphate buffer solution (1× PBS), PBST (blocking buffer, PBS containing 0.5% Tween 20) containing 2% bovine serum albumin was administered and allowed to react for 30 minutes to suppress nonspecific binding of antibodies. After washing with phosphate buffer (1× PBS) three times, 100 μL of primary antibodies (SC-20641, Santa Cruz Biotechnology) to MYH3 diluted to 1:500 were added and allowed to react at room temperature for 1 hour. Thereafter, after washing with phosphate buffer (1× PBS) three times, 100 μL of secondary antibodies (Goat anti-Rabbit IgG-HRP) diluted to 1:5,000 were added and allowed to react at room temperature for 1 hour. After 1 hour, for nuclear staining, after washing with phosphate buffer (1× PBS) three times, the blocking buffer was treated with diluted DAPI dye and allowed to react at room temperature for 10 minutes. Thereafter, after washing with phosphate buffer (1× PBS) three times, the washed cover glass was measured for absorbance at a wavelength of 450 nm and a fluorescent image was taken using a fluorescence microscope. The anti-MyHC antibody stained area was analyzed using imageJ (Java-based image processing program). To confirm the effect of 4-hydroxy alverine on promoting myoblast differentiation, following the same method as Example 1, DMSO, insulin (1.72 μM), alverine citrate (0.01 μM, 0.1 μM, 1 μM or 10 μM), 4-hydroxy alverine (0.01 μM, 0.1 μM, 1 μM or 10 μM) were each administered, and differentiation to myotubes and changes in myotube thickness and diameter were observed.

The test system of assay [2] is C57BL/6 male mice. Briefly: Running ability test (treadmill), normal mouse. The assay is classed as in vivo. The settings on record: oral. As to the method:
In order to confirm the muscle strength enhancement effect of alverine citrate, after administering alverine citrate to a mouse, the mouse was tested for motor functions such as grip strength, running, balance coordination, and the like. After motor function tests, muscle weight was measured. In particular, each of 10 week-old C57BL/6 male mice was dosed orally with 200 μL of alverine citrate for 4 weeks, at a daily dose of 17 mg/kg/day (AC-L), 50 mg/kg/day (AC-M) or 150 mg/kg/day (AC-H). This group of mice was set as the experimental group (FIG. 3). The 10 week-old C57BL/6 male mice were purchased from Daehan BioLink. Running ability was measured using a treadmill designed specific for this experiment. First, aversive stimuli were provided by letting electric stimuli flow at the starting point. Before the measurement, the mice were acclimatized at 8 m/min for 10 minutes. The running time was recorded by allowing mice in each group to run in separate lanes until exhaustion. Exhaustion was defined such that when the mouse stays outside the lanes for 10 seconds or more without running, the mouse was determined to be exhausted and the time was recorded. It was not possible to repeat this experiment on the same mouse. The mouse was placed on the treadmill and the test was started at 8 rpm, and the speed was accelerated by 2 rpm every 10 minutes to a maximum speed of 20 rpm. […]

The test system of assay [3] is C57BL/6 male mice. Briefly: Muscle weight measurement, normal mouse. It counts as in vivo. As to the method:
In order to confirm the muscle strength enhancement effect of alverine citrate, after administering alverine citrate to a mouse, the mouse was tested for motor functions such as grip strength, running, balance coordination, and the like. After motor function tests, muscle weight was measured. In particular, each of 10 week-old C57BL/6 male mice was dosed orally with 200 μL of alverine citrate for 4 weeks, at a daily dose of 17 mg/kg/day (AC-L), 50 mg/kg/day (AC-M) or 150 mg/kg/day (AC-H). This group of mice was set as the experimental group (FIG. 3). The 10 week-old C57BL/6 male mice were purchased from Daehan BioLink. For muscle weight measurement, gastrocnemius (GA) tibialis anterior (TA) muscles in the hindlimb of the mice in each group were removed and weighed.

Assay [4] relates to C2C12 cells. Briefly: Myotube atrophy induced by C26 cancer cell conditioned medium (cachexia model). The assay is classed as cell-based, mouse. Conditions: 1 μM; differentiation media with 33% CM, 3 days. As to the method:
In order to confirm a cachexia treatment effect of alverine citrate and 4-hydroxy alverine, an experiment mimicking a tumor-growth environment by treatment of a cancer cell conditioned medium (CM) was conducted as an ex vivo approach. First, cancer cell CM was prepared using a C26 cancer cell line. Here, as cancel cell growth media (GM), RPMI1640 media supplemented with 10% fetal bovine serum was used. The C26 cancer cell line was cultured using a 100 mm cell culture plate and the cancer cell GM. Here, the media were removed when cell confluency reached 90%. Then, after washing with phosphate buffer (1× buffer), the prepared differentiation media were treated following the same process as in Example 1. After 24 hours, a C26 cancer cell line CM was obtained and filtered using bottle top filters (Thermo, PES, 1 L) before use.
C2C12 cells were dispensed in a 6-well plate treated with the GM of Example 1.1 at a concentration of 5×10^5 cells per plate and after 24 hours, were replaced with DMEM media supplemented with 5% HS and induced for differentiation. […] Here, by treating the experimental groups with 1 μM alverine citrate (AC) and 4-hydroxy alverine (4HA), the effect of suppressing myotube atrophy was evaluated. […] Following the same method as in Example 1.2, by florescent staining using antibodies against MyHC, the expression amount of MyHC was measured.

With `CCN(CCCc1ccccc1)CCCc1ccccc1` [alverine citrate], in the assay with C2C12 cells [1] (as the treatment concentration increases (0.01, 0.1, 1, 10 μM), 3 days), the diameter of myotubes result is listed as “the diameter of myotubes increased”. The “differentiation of myoblasts to myotubes” value in the assay with C2C12 cells [1] (compared with DMSO alone, 3 days, insulin 1.72 μM, alverine citrate 0.01-10 μM) was “more differentiated to myotubes”; in the assay on C2C12 cells [1] (compared with DMSO or insulin (1.72 μM), 0.01-10 μM) it was “more differentiated to myotubes”. Moreover, the running time entry in the assay with C57BL/6 male mice [2] (4 weeks, 150 mg/kg/day) is on record as “significant increase in the running time”; in the assay on C57BL/6 male mice [2] (4 weeks, 17, 50 or 150 mg/kg/day, compared with normal group), “increased compared to the normal group mouse”. The “muscle weight of GA and TA, dependence on dose” value in the assay with C57BL/6 male mice [3] (as the administration dose increases (17, 50, 150 mg/kg/day)) is recorded as “also increased”. In addition, in the assay on C57BL/6 male mice [3] (oral, 4 weeks, 17, 50 or 150 mg/kg/day, compared with normal group), the “muscle weight of GA and TA” value is given as “increased compared to the normal group mouse”. In addition, in the assay with C2C12 cells [4], the myotube atrophy entry was “myotube atrophy was suppressed”.
